Test results: patent US4778796A, “ω-(3-pyridyl)alkenamide derivatives and anti-allergenic pharmaceutical compositions containing same” (Dainippon Pharmaceutical Co., Ltd., priority 1985, dated 1988)

Tests used:
[1] = Acute lethal toxicity in mice; conditions: mouse, in vivo; oral, mortality observed for two weeks
Experimental: Test 3 Acute lethal toxicity in mice
Test compounds were suspended in a 0.5% aqueous tragacanth solution. LD50 values were calculated according to the method of Litchfield and Wilcoxon [cf. J. Pharmacol. Exp. Ther., 96, 99 (1949)].

[2] = test system: passive cutaneous anaphylaxis (PCA); assay: Inhibitory effect on passive cutaneous anaphylaxis (PCA) in rats; assay type: in vivo, rat (male Wistar); conditions: Rattus norvegicus; 20 mg/kg, oral, 1 hour before antigen challenge; read-out: Inhibition (PCA in rats)
Experimental: (1) Inhibitory effect on passive cutaneous anaphylaxis (PCA) in rats:
This test was carried out by the method of Perper et al. [cf.
Male Wistar rats (130-180 g) were injected with 0.1 ml of a dilute solution of mouse antiserum to egg albumin in two sites of the shaved ventral skin. Forty-eight hours later each rat was challenged by an intravenous injection of 2 mg of the antigen together with 1 ml of a 0.5% Evan's blue saline solution. The rats were sacrificed 30 minutes after the challenge. The area of the blueing lesions was measured on the undersurface of the skin. The average value of the two lesions of each rat was regarded as the response of the rat. Test compounds in a dose of 20 mg/kg, dissolved or suspended in a 0.5% aqueous tragacanth solution, were administered orally 1 hour before the antigen challenge. The inhibitory rate was determined by comparing the responses of the rats given each test compound with those of the rats given only a 0.5% aqueous tragacanth solution. Each group of 3 rats was used for each test compound. The mouse antiserum to egg albumin was produced by the method of Levine and Vaz [cf. Int. Arch. Allergy Appl.

5-lipoxygenase = biological target: T1, 5-lipoxygenase (Cavia porcellus, UniProt A0A286X958); assay: Inhibitory effect on 5-lipoxygenase activity in guinea pig leukocytes; assay type: biochemical, guinea pig (male Hartley); conditions: read-out: 5-Lipoxygenase inhibit. activity, Inhibition
T1 construct: The cytosol fraction of peritoneal exudate cells from male Hartley guinea pigs (400-700 g) was used as 5-lipoxygenase; from tissue; host or cells: cytosol fraction of peritoneal exudate cells (leukocytes) of male Hartley guinea pigs
T1 sequence (A0A286X958 1-674): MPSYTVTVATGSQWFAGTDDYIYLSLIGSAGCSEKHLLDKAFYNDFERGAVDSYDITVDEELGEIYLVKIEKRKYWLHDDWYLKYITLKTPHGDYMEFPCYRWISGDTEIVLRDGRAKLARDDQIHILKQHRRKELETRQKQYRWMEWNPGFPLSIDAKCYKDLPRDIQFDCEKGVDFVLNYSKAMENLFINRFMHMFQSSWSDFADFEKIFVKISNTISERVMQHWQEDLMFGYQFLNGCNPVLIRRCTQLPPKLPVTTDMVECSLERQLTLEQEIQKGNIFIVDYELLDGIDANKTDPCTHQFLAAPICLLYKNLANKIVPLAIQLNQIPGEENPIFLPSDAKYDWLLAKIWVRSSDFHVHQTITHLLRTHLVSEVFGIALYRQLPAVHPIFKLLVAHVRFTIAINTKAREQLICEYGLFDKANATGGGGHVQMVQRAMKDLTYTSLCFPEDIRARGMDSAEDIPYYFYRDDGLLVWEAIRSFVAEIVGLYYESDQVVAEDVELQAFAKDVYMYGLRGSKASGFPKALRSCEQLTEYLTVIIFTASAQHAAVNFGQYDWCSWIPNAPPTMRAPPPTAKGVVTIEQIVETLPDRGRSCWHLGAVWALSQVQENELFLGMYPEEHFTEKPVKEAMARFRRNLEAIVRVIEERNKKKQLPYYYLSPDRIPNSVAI
Experimental: (1) Inhibitory effect on 5-lipoxygenase activity in guinea pig leukocytes:
This test was carried out by the method of Miyamoto and Obata (cf. "Perspectives in Prostaglandin Research," ed. by Y. Shiokawa et al., Excepta Medica, Amsterdam-Oxford-Princeton, 1983, p78) with minor modifications.
The cytosol fraction of peritoneal exudate cells from male Hartley guinea pigs (400-700 g) was used as 5-lipoxygenase. The standard reaction mixture contained 50 mM potassium phosphate buffer, 1 mM CaCl2, 1 mM glutathione, 1 mM adenosine triphosphoric acid, 10 μM indomethacin and the enzyme. The mixture was incubated for 5 minutes at 30° C. after addition of [1-^14 C]arachidonic acid (0.02 μCi). The reaction was terminated by addition of 0.6 ml of the cold organic solvents (diethyl ether/methanol/0.2M citric acid=30/4/1). The organic layer (300 μl) was applied onto a precoated silica gel 60F254 glass plate (E. Merck, West Germany). Radioactivity on the plate was monitored by a radiochromatogram scanner (Packard, U.S.A.). 5-Lipoxygenase activity was calculated according to the following equation. [formula]
The effects of the test compounds were expressed in terms of percent inhibition.

human basophils = assay: Inhibitory effect on histamine release induced by anti-human IgE antibody from healthy human basophils; assay type: cell-based
Experimental: (3) Inhibitory effect on histamine release induced by anti-human IgE antibody from healthy human basophils:
Basophils from nonallergic volunteers were collected by the method of Levy and Osler [cf. […] The cells were washed once with a cold Tris-A buffer at pH 7.4 (25 mM Tris, 120 mM NaCl, 5 mM KCl and 0.03% human serum albumin) containing 4 mM EDTA and twice with Tris-A buffer. After washing, the cells were resuspended at 5-10×10^6 leukocytes/ml in Tris-ACM buffer at pH 7.6 (Tris-A buffer, 0.6 mM CaCl2 and 1 mM MgCl2). One ml of the cell suspension was incubated with 0.1 ml of a solution of test compound or vehicle for 15 minutes at 37° C., and then for further 45 minutes with 0.1 ml of anti-human IgE antibody. After ice-cooling, the reaction mixtures were centrifuged at 1,200 rpm for 8 minutes at 4° C. The supernatant fluids and the cells were analysed separately for histamine by a modification of the spectrophotofluorometric technique of Shore et al. [cf. […] Histamine release rate was calculated according to the following equation. [formula] A: total histamine (supernatant+cell) B: supernatant histamine without anti-IgE
C: supernatant histamine with anti-IgE
Inhibitory rate was calculated from histamine release rates without vs. with test compound.

[3] = test system: contact hypersensitivity to oxazolone; assay: Inhibitory effect on contact hypersensitivity to oxazolone in mice; assay type: in vivo, mouse (male ICR); conditions: topical, 24 hours after challenge
Experimental: (3) Inhibitory effect on contact hypersensitivity to oxazolone in mice:
This test was carried out by the method of Evans et al. [cf. Brit.
Male ICR mice (18-20 g) were used. The abdominal region of the mice was carefully clipped with an electric clipper, and 0.1 ml of a 0.5 w/v % oxazolone solution in absolute ethanol was gently rubbed into the clipped area. Five days after the sensitization 20 μl of a 0.5 w/v % oxazolone solution in acetone or chloroform, or the solution containing test compound was applied to both sides of the right ear. The left ear was not treated. Twenty-four hours after the challenge, the animals were sacrificed with diethyl ether. The circular parts (5.5 mm in diameter) of both ears were removed by punching and then weighed. The inhibitory rate was determined by comparing the ear swelling of the mice treated with oxazolone containing test compound with that of the mice treated with oxazolone. Each group of 8 mice was used for each dose of the test compound.

Cc1ccc(C=CC(=O)NCCCCN2CCN(C(c3ccccc3)c3ccccc3)CC2)cn1 [Example 2, N-[3-(6-methyl-3-pyridyl)acryloyl]-4-(4-diphenylmethyl-1-piperazinyl)butylamine]
LD50 at 336 h [1]: 601 mg/kg
inhibition in vivo at 20 mg/kg [2]: 81.9%
inhibition at 30 µM (5-lipoxygenase; 3 × 10^-5 M): 87.2%
inhibition at 10 µM (5-lipoxygenase; 10^-5 M): 45.7%
IC50 (human basophils; anti-human IgE antibody, human basophils, read-out: Histamine release inhibit. IC50): 34 µM
ability to inhibit histamine release (in words) (human basophils; compared with ketotifen fumarate): superior to ketotifen fumarate in the ability to inhibit histamine release
% Inhibition of ear swelling ([3]; 0.3 mg/ear): 40.8%
% Inhibition of ear swelling ([3]; 1.0 mg/ear): 90.0%
